Source: article PMC3507948, “Origin and Evolution of Retinoid Isomerization Machinery in Vertebrate Visual Cycle: Hint from Jawless Vertebrates” (PLoS ONE, 2012)

Columns and labels:
Assay type in all cases: cell-based
[1] = biological target: T1, Ciona BCMOb (Ci-BCMO1; ci-BCO) (Ciona intestinalis, UniProt Q2PE72); test: β-carotene loss in β-carotene-accumulating E. coli, reverse-phase HPLC; details: arabinose induction; no retinal detected
T1 construct: expressed in carotenoid-accumulating E. coli
T1 sequence (Q2PE72 1-524): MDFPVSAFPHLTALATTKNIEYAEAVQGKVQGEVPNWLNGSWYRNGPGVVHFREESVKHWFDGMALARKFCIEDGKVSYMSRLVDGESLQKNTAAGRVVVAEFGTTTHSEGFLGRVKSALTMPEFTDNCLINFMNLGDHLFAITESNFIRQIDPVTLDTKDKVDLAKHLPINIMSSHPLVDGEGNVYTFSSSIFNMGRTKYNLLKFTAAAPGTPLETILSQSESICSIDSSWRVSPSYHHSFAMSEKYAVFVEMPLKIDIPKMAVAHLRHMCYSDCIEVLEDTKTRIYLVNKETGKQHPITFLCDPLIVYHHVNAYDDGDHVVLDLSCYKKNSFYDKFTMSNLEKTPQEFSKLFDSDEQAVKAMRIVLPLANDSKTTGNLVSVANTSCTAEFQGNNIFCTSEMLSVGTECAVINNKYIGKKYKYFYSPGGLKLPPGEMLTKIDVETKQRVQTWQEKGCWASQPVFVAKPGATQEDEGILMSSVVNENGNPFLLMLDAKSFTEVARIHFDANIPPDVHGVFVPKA

Ciona BCMOa (Ci-RPE65) [2] = biological target: T2, Ciona BCMOa (Ci-RPE65) (Ciona intestinalis, UniProt Q2PE71); test: as above; details: arabinose induction, 18 h; no retinal detected
T2 construct: ORF from synthetic pUC57/ciBCMOa (Genscript), cloned in pBadTOPO, expressed in carotenoid-accumulating E. coli
T2 sequence (Q2PE71 1-553): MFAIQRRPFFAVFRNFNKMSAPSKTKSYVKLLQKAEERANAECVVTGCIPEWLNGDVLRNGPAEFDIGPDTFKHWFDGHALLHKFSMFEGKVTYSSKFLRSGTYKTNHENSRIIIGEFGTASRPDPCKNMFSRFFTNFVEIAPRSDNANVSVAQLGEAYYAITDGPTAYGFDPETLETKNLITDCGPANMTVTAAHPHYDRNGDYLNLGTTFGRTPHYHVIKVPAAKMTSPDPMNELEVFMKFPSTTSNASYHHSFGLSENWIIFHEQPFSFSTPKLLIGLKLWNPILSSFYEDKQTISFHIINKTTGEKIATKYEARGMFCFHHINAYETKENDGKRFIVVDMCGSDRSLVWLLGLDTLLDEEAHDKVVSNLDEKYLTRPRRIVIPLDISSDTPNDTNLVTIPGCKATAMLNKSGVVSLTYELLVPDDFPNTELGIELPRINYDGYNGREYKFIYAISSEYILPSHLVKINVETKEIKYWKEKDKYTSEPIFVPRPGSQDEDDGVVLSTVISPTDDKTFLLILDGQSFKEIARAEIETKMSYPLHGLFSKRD

Ciona BCMOa (Ci-RPE65) [3] = biological target: T2, Ciona BCMOa (Ci-RPE65); test: lycopene loss in lycopene-accumulating E. coli, reverse-phase HPLC; details: arabinose induction, 18 h; no retinal detected; data not shown
[4] = biological target: T1, Ciona BCMOb (Ci-BCMO1; ci-BCO); test: as above; details: arabinose induction; no retinal detected; printed as β-carotene or lycopene
Lamprey RPE65 = biological target: T3, Lamprey RPE65 (Petromyzon marinus, UniProt L0ATZ0); test: HEK293-F minimal visual cycle assay, normal-phase HPLC of saponified retinoids; details: co-expressed lamprey LRATb or bovine LRAT and bovine CRALBP; 2.5 µM all-trans retinol fed for 5 h; direct substrate is the retinyl ester formed in the cells
T3 construct: pVITRO2 with bovine CRALBP, expressed in HEK293-F cells with LRAT
T3 sequence (L0ATZ0 1-537): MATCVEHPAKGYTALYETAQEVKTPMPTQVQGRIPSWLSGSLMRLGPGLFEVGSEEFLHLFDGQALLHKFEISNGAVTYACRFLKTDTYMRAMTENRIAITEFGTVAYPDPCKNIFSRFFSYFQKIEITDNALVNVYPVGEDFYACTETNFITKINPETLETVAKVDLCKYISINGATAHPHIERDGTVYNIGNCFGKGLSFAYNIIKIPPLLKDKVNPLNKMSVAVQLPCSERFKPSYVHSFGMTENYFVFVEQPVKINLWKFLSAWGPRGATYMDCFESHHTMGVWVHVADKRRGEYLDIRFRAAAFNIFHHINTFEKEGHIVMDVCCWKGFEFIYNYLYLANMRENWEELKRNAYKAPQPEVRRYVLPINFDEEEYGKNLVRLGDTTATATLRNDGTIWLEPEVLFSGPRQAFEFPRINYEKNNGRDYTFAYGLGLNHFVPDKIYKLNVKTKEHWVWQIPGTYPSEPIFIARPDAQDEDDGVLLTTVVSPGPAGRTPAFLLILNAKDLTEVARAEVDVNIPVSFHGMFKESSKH

Lamprey LRATb = biological target: T4, Lamprey LRATb (Petromyzon marinus, UniProt A0AAJ7TIF3); test: retinol esterification in HEK293-F cells, HPLC, retinyl esters as % of total retinoids; details: with 50 µM A922500 to block endogenous DGAT1; all-trans retinol added to cells
T4 construct: gene LOC116947134; full-length ORF cloned from adult female lamprey RPE (852 bp PCR product), 7-glycine tract at aa 160-166; pVITRO3, expressed in HEK293-F cells
T4 sequence (A0AAJ7TIF3 1-274): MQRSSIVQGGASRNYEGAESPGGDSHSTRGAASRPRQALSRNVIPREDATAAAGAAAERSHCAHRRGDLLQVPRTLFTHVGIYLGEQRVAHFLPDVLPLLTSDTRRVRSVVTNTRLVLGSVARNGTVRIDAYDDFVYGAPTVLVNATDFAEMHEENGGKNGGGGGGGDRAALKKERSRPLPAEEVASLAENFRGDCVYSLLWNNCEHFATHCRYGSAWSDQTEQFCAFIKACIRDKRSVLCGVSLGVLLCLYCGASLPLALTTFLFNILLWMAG

CC1=C(/C=C/C(C)=C/C=C/C(C)=C/C=C/C=C(C)/C=C/C=C(C)/C=C/C2=C(C)CCCC2(C)C)C(C)(C)CCC1 [β-carotene]
β-carotene loss in β-carotene-accumulating E. coli, reverse-phase HPLC [1]: Ciona BCMOb (ci-BCO) also demonstrated significant carotenoid cleavage activity | β-carotene loss in β-carotene-accumulating E. coli, reverse-phase HPLC (Ciona BCMOa (Ci-RPE65) [2]): the amount of lycopene (data not shown) or β-carotene in induced cells decreased significantly

CC(C)=CCC/C(C)=C/C=C/C(C)=C/C=C/C(C)=C/C=C/C=C(C)/C=C/C=C(C)/C=C/C=C(\C)CCC=C(C)C [lycopene]
lycopene loss in lycopene-accumulating E. coli, reverse-phase HPLC (Ciona BCMOa (Ci-RPE65) [3]): the amount of lycopene (data not shown) or β-carotene in induced cells decreased significantly | lycopene loss in lycopene-accumulating E. coli, reverse-phase HPLC [4]: Quantification of β-carotene or lycopene in induced cell culture transformed with Ciona BCMOb (ci-BCO)

CC1=C(/C=C/C(C)=C/C=C\C(C)=C\CO)C(C)(C)CCC1 [11-cis retinol]
HEK293-F minimal visual cycle assay, normal-phase HPLC of saponified retinoids (Lamprey RPE65): Cells transfected with lamprey RPE65 and lamprey LRATb were also able to produce 11-cis retinol

CC1=C(/C=C/C(C)=C/C=C/C(C)=C/CO)C(C)(C)CCC1 [all-trans retinol]
retinol esterification in HEK293-F cells, HPLC, retinyl esters as % of total ret (Lamprey LRATb): Catalytic activity of Lamprey LRATb in HEK293F cells in the presence of specific DGAT1 inhibitor
